{"source": "paper PMC12648443", "about": "“Modifications of NU-9, a potent protein aggregation inhibitor. Properties and activity in a cellular model of amyotrophic lateral sclerosis” (Bioorganic chemistry, 2025)", "key": {"[1]": {"test": "In vitro cytotoxicity, CellTiter-Glo, HEK293", "type": "cell-based", "conditions": "human, HEK293 cells; for viability at 24 h, 30 μM / viability at 48 h, 30 μM: relative to untreated cells, read-out: Percentage of viable cells observed at 30 μM treatment, HEK293; for EC50 at 24 h / EC50 at 48 h: cytotoxicity", "method": "The HepG2 and HEK293 cells were cultured in DMEM media supplemented with 10 % FBS (heat-inactivated), 1 % Pen-strep, and L-glutamine and incubated at 37 °C in humidified air with 5 % CO2 until 85–90 % confluency. The PC12 Tet-Off-SOD1^G85R YFP cells were maintained as described in 4.2. On the day before the experiments, the cells were transferred to white bottom 96 well plates (Greiner cat. 655,083) at a concentration of 50,000 cells/100 μL of media in each well and incubated overnight at 37 °C. Stock solutions of the compounds (30 mM) in DMSO were prepared and then diluted in media to obtain the six final working solutions starting at 30 μM, and serial dilutions were obtained with the lowest concentration at 0.25 μM. The media were removed and fresh media containing the compounds or the vehicle DMSO (0.1 % v/v) were transferred to the plates containing HepG2 and HEK293 cells and the plates were incubated for 24 or 48 h at 37 °C. The PC12 Tet-Off-SOD1^G85R YFP cells compound treatment was performed as described in section 4.2 and using a 9-point 2-fold serial dilution of the compounds starting at 15 μM and the lowest concentration at 0.05 μM. After incubation, the plates were cooled to room temperature and 25 μL of CellTiter-Glo® solution was added to each well. The plates were loaded into a BioTek Synergy H1 MD plate reader and shaken for 2 min, stabilized for 10 min without shaking, and then the luminescence values were read for each well (luminescence integration step 1 ms). Wells containing media with the vehicle DMSO with or without cells were used as controls to represent, respectively, the maximum viability and the lowest viability (background signal) for the cytotoxicity studies with HepG2 and HEK293 cell lines. The viability values for the assay performed with the PC12 Tet-Off-SOD1^G85R YFP cells were normalised for the vehicle (0.1 % DMSO) and (−)-MG-132 alone treatments, which represented respectively the […] viability for the assay.\nThe results are presented as an average of three independent experiments, each performed in triplicate, for the cytotoxicity experiments performed with HepG2 and HEK293 cells. The results for the protective screening with the PC12 Tet-Off-SOD1^G85R YFP cells are presented as an average of four replicates."}, "P-gp": {"biological_target": "T1, P-gp (Homo sapiens, UniProt P08183)", "T1 construct": "host or cells: MDCK-MDR1 (Madin Darby canine kidney cells carrying the MDR1 gene)", "T1 sequence (P08183 whole entry)": "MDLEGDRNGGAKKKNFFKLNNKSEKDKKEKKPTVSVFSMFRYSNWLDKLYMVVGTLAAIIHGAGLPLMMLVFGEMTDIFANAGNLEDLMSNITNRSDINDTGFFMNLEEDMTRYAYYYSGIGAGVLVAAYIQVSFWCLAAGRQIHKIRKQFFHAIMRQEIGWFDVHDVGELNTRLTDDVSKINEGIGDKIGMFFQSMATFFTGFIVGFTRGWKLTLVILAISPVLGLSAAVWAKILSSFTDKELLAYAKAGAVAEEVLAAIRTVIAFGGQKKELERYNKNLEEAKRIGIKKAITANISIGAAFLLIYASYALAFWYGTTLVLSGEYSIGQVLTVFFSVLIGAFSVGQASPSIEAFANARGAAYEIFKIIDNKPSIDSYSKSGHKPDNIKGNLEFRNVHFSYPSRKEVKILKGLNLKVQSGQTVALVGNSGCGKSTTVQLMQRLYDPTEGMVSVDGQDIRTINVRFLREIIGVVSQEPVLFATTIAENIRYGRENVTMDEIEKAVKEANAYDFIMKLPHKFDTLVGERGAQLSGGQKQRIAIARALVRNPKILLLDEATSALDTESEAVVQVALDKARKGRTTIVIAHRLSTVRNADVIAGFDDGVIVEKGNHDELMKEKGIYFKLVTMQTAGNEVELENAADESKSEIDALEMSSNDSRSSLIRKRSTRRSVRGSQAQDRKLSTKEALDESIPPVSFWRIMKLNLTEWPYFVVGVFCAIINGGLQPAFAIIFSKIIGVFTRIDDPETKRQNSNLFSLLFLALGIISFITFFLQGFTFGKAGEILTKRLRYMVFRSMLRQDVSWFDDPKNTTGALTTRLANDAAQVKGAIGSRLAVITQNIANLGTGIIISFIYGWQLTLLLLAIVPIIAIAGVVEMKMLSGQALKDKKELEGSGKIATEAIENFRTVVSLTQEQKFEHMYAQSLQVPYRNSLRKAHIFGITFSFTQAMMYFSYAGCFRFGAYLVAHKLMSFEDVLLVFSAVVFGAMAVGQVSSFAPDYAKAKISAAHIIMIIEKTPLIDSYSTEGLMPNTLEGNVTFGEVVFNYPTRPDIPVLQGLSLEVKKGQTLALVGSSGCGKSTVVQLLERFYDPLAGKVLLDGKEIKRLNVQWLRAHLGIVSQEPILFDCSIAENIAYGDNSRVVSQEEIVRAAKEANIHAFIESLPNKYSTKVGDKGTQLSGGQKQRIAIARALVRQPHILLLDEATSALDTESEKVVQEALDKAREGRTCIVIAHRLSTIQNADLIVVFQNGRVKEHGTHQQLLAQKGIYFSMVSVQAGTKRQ", "test": "MDCK-MDR1 bidirectional permeability / efflux assay", "type": "in vitro ADME", "conditions": "MDCK-MDR1; for Papp A→B at 120 min / Papp B→A at 120 min / efflux ratio at 120 min: dog", "method": "The assay was carried out at Sai Life Sciences. Stock solutions of 6, 20, assay controls loperamide, atenolol, and propanolol (4 and 20 mM), and P-gp inhibitor zosuquidar (10 mM) were prepared in DMSO. Then the stock solutions from each test compound were diluted in HBSS buffer containing 10 mM HEPES to obtain the assay working solutions without the P-gp inhibitor at 2 and 10 μM (0.1 % DMSO v/v). Into working solutions containing zosuquidar (5 μM) were individually diluted 6, 20, and loperamide to obtain working solutions containing the test compounds at 2 or 10 μM and zosuquidar at 5 μM.\nThe MDCK-MDR1 (Madin Darby canine kidney - Multidrug Resistance gene-1) cells were cultured in DMEM media supplemented with 10 % FBS and antibiotics. For transport studies, cells were seeded into PET trans filter membranes (Millipore #PSRP010R5; 1.0 μm pore size) at a density of 1.2 × 10^5 cells/well and colchicine was added to the flasks and plates according to their volume. After 24 h, the media were replaced by fresh media and then changed every 2 days over 8 days. The media were removed from the wells of the basal and apical compartments of the plates, and a solution of HBSS with or without zosuquidar (5 μM) was added to the apical (400 μL) and basal (800 μL) sides of the plates. The plates were pre-incubated at 37 °C for 30 min in humidified air with 5 % CO2. The TTER (Transepithelial-Transendothelial Electrical Resistance) value for each well was recorded (assay TEER >83 Ω.cm^2). The buffer was removed from both compartments, and for the apical to basal direction transport determination, the apical compartment was loaded with 400 μL of the working solutions of the tested compounds or controls (2 or 10 μM) in the presence or absence of zosuquidar (5 μM), and the basal compartment was loaded with 800 μL of HBSS (0.1 % DMSO v/v). For the basal to apical direction transport determination, the compartments were loaded in their reverse order. The assay was performed in duplicate for the two transport directions [apical to basolateral (A → B) and basolateral to apical (B → A)]. After 120 min, 100 μL samples from both the apical and basal sides of the plate were transferred to new 96-deep well plates, quenched with acetonitrile containing an internal standard, vortexed for 5 min, and then centrifuged at 4000 rpm for 10 min. The same procedure was used to prepare a 96-deep well plate containing non-assayed working solutions (t = 0 concentrations). After centrifugation, 100 μL of the supernatant of each well was transferred to a new 96-well plate, and the samples were analyzed by LC-MS/MS.\nFor each experiment, the apparent permeability (Papp) for each direction and the efflux ratio (ER) were determined by the equations: Papp(cm/s)=(dQ/dt)/A×Co\nwhere dQ/dt is the rate of permeation of the tested compounds across the (0 and 120 min) after correcting for dilution; A is the area of the filter (0.7 cm^2); Co is the initial concentration of the compounds on the donor compartment.\nWhere P(B→A) is the apparent permeability of the compounds from the basal to the apical direction and P(A→B) is the apparent permeability from the apical to basal direction. Lucifer Yellow was used as a control of the assay to evaluate monolayer integrity after incubation with the working solutions of the compounds, and the results were validated if the permeability of Lucifer Yellow from the apical to the basal side after 1-h incubation was kept <2 %. The results are presented as an average of two independent experiments."}}}
{"smiles": "O=C1CC(=O)CC(/C=C/c2cc(C(F)(F)F)cc(C(F)(F)F)c2)C1", "note": "[Compound 6, (E)-5-(3,5-Bis(trifluoromethyl)styryl)cyclohexane-1,3-dione]", "values": [{"measurement": "viability at 24 h, 30 μM", "setting": "[1]", "result": 82.6, "unit": "%"}, {"measurement": "viability at 48 h, 30 μM", "setting": "[1]", "result": 89.6, "unit": "%"}, {"measurement": "EC50 at 24 h", "setting": "[1]", "result": "> 30", "unit": "µM"}, {"measurement": "EC50 at 48 h", "setting": "[1]", "result": "> 30", "unit": "µM"}, {"measurement": "substrate for the P-gp transporter", "setting": "P-gp", "result": "substrates"}, {"measurement": "Papp A→B at 120 min", "setting": "P-gp", "result": "106 ± 12.8", "unit": "nm/s"}, {"measurement": "Papp B→A at 120 min", "setting": "P-gp", "result": "243.1 ± 1.8", "unit": "nm/s"}, {"measurement": "efflux ratio at 120 min", "setting": "P-gp", "result": 2.29}]}
{"smiles": "CC(C)(Oc1cc(C(F)(F)F)cc(C(F)(F)F)c1)C1CC(=O)CC(=O)C1", "note": "[Compound 20, 5-(2-(3,5-bis(trifluoromethyl)phenoxy)propan-2-yl)cyclohexane-1,3-dione]", "values": [{"measurement": "viability at 24 h, 30 μM", "setting": "[1]", "result": 90, "unit": "%"}, {"measurement": "viability at 48 h, 30 μM", "setting": "[1]", "result": 91.6, "unit": "%"}, {"measurement": "EC50 at 24 h", "setting": "[1]", "result": "> 30", "unit": "µM"}, {"measurement": "EC50 at 48 h", "setting": "[1]", "result": "> 30", "unit": "µM"}, {"measurement": "substrate for the P-gp transporter", "setting": "P-gp", "result": "substrates"}, {"measurement": "Papp A→B at 120 min", "setting": "P-gp", "result": "58.2 ± 0.6", "unit": "nm/s"}, {"measurement": "Papp B→A at 120 min", "setting": "P-gp", "result": "147 ± 7.8", "unit": "nm/s"}, {"measurement": "efflux ratio at 120 min", "setting": "P-gp", "result": 2.53}]}
